The text below walks through data of the supplement of paper PMC3770661.

Molecules are shown by their SMILES. Structures can show the parent of a compound that is named as a salt. ± gives the uncertainty stated by the source.

The assay deals with HepG2 (L1.3 5'UTR promoter firefly luciferase reporter). Kind of assay: L1 promoter activity (FLuc/RLuc) relative to DMSO vehicle control (% of control); higher = stronger L1 promoter activation. The protocol:
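HepG2 cells in 96-well plates were cotransfected with pGL4.11-L1.3 5'UTR (firefly luciferase driven by the human L1.3 5'UTR promoter) and pGL4.74 (HSV-TK Renilla luciferase internal control), then treated with compound for 6 or 24 h. FLuc/RLuc ratio was normalised to the DMSO vehicle control (% of control); concentrations where RLuc fell below 50% of control were excluded (N.D.). Mean of at least two independent experiments in duplicate or quadruplicate.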

The mark [1] stands for this setting: concentration (uM unless unit written): 10, treatment time: 6 h.
The mark [2] stands for this setting: concentration (uM unless unit written): 10, treatment time: 24 h.
The mark [3] stands for this setting: concentration (uM unless unit written): 25, treatment time: 6 h.
[4] abbreviates: concentration (uM unless unit written): 25, treatment time: 24 h.
Where [5] appears, read: concentration (uM unless unit written): 50, treatment time: 6 h.
Setting [6] is: concentration (uM unless unit written): 50, treatment time: 24 h.
[7] abbreviates: concentration (uM unless unit written): 100, treatment time: 6 h.
The mark [8] stands for this setting: concentration (uM unless unit written): 100, treatment time: 24 h.
Setting [9] is: concentration (uM unless unit written): 2500, treatment time: 6 h.
The mark [10] stands for this setting: concentration (uM unless unit written): 200, treatment time: 6 h.
[11] abbreviates: concentration (uM unless unit written): 500, treatment time: 6 h.
[12] abbreviates: concentration (uM unless unit written): 250, treatment time: 6 h.
Where [13] appears, read: concentration (uM unless unit written): 500, treatment time: 24 h.
The mark [14] stands for this setting: concentration (uM unless unit written): 200, treatment time: 24 h.

Turning to `CC(=O)Nc1ccc(O)cc1` [Acetaminophen], the L1 promoter activity is, setting by setting: (concentration (uM unless unit written): 10000, treatment time: 6 h) 116 ± 12; (concentration (uM unless unit written): 10000, treatment time: 24 h) 131 ± 18; (concentration (uM unless unit written): 20000, treatment time: 6 h) 115 ± 9.1.

On to `COc1cc([C@@H]2c3cc4c(cc3[C@@H](O[C@@H]3O[C@@H]5CO[C@@H](C)O[C@H]5[C@H](O)[C@H]3O)[C@H]3COC(=O)[C@H]23)OCO4)cc(OC)c1O` [Etoposide], for which the L1 promoter activity runs as follows: under setting [1], 90.4 ± 7.5; under setting [2], 95.7 ± 4.1; under setting [3], 100 ± 30; under setting [4], 108 ± 16; under setting [5], 98.6 ± 21; under setting [6], 138 ± 70.

As for `C[C@]12CC[C@@H]3c4ccc(O)cc4CC[C@H]3[C@@H]1CC[C@@H]2O` [17β-Estradiol], the L1 promoter activity runs as follows: under setting [3], 101 ± 6.5; under setting [4], 104 ± 11; under setting [5], 119 ± 8.4; under setting [6], 103 ± 16; under setting [7], 107 ± 7.5; under setting [8], 102 ± 15.

Regarding `CCCC(CCC)C(=O)O` [Valproic acid], the L1 promoter activity runs as follows: under setting [9], 90.2 ± 25; (concentration (uM unless unit written): 2500, treatment time: 24 h) 18.5 ± 1.6.

With `NC1=NCC2c3ccccc3Cc3ccccc3N12` (centres undefined) [Epinastine hydrochloride], the L1 promoter activity runs as follows: under setting [7], 93.6 ± 15; under setting [8], 85.9 ± 26; under setting [10], 77.8 ± 12; under setting [11], 27.1 ± 3.8.

Take `O=C(O)c1cc(-c2ccc(F)cc2F)ccc1O` [Diflunisal]: the L1 promoter activity runs as follows: (concentration (uM unless unit written): 62.5, treatment time: 6 h) 148 ± 6.5; (concentration (uM unless unit written): 62.5, treatment time: 24 h) 117 ± 8.5; (concentration (uM unless unit written): 125, treatment time: 6 h) 136 ± 12; (concentration (uM unless unit written): 125, treatment time: 24 h) 156 ± 4.7; under setting [12], 159 ± 21.

Take `CNc1ccc2oc(C[C@H]3O[C@@]4(CC[C@H]3C)O[C@H]([C@H](C)C(=O)c3ccc[nH]3)[C@H](C)C[C@H]4C)nc2c1C(=O)O`: the L1 promoter activity is 57.4 ± 16 (concentration (uM unless unit written): 0.75, treatment time: 6 h); 57.4 ± 4.2 (concentration (uM unless unit written): 0.75, treatment time: 24 h); 52.4 ± 8.8 (concentration (uM unless unit written): 1.5, treatment time: 6 h); 54.4 ± 4.2 (concentration (uM unless unit written): 5, treatment time: 6 h).

`CN1CC=C(c2ccccc2)CC1` [1-Methyl-4-phenyl-1,2,3,6-tetrahydropyridine]: the L1 promoter activity by setting is: under setting [11], 115 ± 11; under setting [13], 121 ± 19.

In the case of `Cc1cc(CC(=O)O)n(C)c1C(=O)c1ccc(Cl)cc1` [Zomepirac], the L1 promoter activity runs as follows: under setting [11], 102 ± 9.6; under setting [13], 86.3 ± 6.3.

`Clc1ccccc1CN1CCc2sccc2C1` [Ticlopidine]: the L1 promoter activity reads like this: under setting [1], 117 ± 5.9; under setting [2], 124 ± 4.8; under setting [3], 107 ± 9.2; under setting [4], 104 ± 9.1; under setting [5], 96.2 ± 12; under setting [6], 113 ± 22. In addition, the L1 promoter activity under setting [7] stood at 97.5 ± 13 and the L1 promoter activity under setting [8] was 129 ± 11.

On to `Nc1nc2c(ncn2COC(CO)CO)c(=O)[nH]1` [Ganciclovir], for which the L1 promoter activity runs as follows: under setting [11], 109 ± 17; under setting [13], 98.3 ± 6.1; (concentration (uM unless unit written): 1000, treatment time: 6 h) 115 ± 16; (concentration (uM unless unit written): 1000, treatment time: 24 h) 104 ± 11.

Take `O=C(O)c1nn(Cc2ccc(Cl)cc2Cl)c2ccccc12` [Lonidamine]: the L1 promoter activity is 105 ± 12 under setting [5]; 93 ± 8 under setting [6]; 87.9 ± 6.3 under setting [7]; 105 ± 9.1 under setting [8]; 99.9 ± 25 under setting [10]; 91.6 ± 9.5 under setting [14].

Consider `Cc1cccc(Nc2cc(Cl)nc(SCC(=O)O)n2)c1C`, for which the L1 promoter activity reads like this: under setting [10], 98.9 ± 11; under setting [14], 82.7 ± 5.2.

For the molecule `NC(=O)c1ccccc1O` [Salicylamide], the L1 promoter activity runs as follows: (concentration (uM unless unit written): 1250, treatment time: 6 h) 146 ± 22; (concentration (uM unless unit written): 1250, treatment time: 24 h) 175 ± 16; under setting [9], 139 ± 9.1; (concentration (uM unless unit written): 5000, treatment time: 6 h) 151 ± 25.

For `CC1=C(CC(=O)O)c2cc(F)ccc2/C1=C\c1ccc([S+](C)[O-])cc1` (centres undefined) [Sulindac], the L1 promoter activity under setting [12] was 218 ± 44.
